# Molecular target: T1, CDK2 (Homo sapiens, UniProt P24941)
# T1 construct: endogenous in cells; host or cells: OVCAR3 cells
# Experiment: Phospho-RB measurement in OVCAR3 cells (HTRF phospho-RB cellular kit)
# Type: cell-based
# Conditions: inhibition of RB phosphorylation at S807/811 (HTRF, TR-FRET ratio 665/620), 24 h compound treatment, 0.3 to 10,000 nM
# Procedure, shortened: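 IC50 came from a four-parameter logistic fit of the DMSO-normalized TR-FRET ratio (665/620 nm). That ratio reflects RB phosphorylation at S807/811, read with an HTRF antibody pair 4 h after adding lysate at room temperature.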
row,Compound,IC50 [nM]
1,"CCN(C)S(=O)(=O)Nc1cccc(-c2nc(C(C)(C)C)sc2-c2ccnc(NC3CC4(C3)CS(=O)(=O)C4)n2)c1F [Example 194, N-(3-(2-(tert-butyl)-5-(2-((2,2-dioxido-2-thiaspiro[3.3]heptan-6-yl)amino)-pyrimidin-4-yl)thiazol-4-yl)-2-fluoro-phenyl)-N-methyl-N-ethylamine-sulfonamide]",1850
2,"CC(C)(C)c1nc(-c2cccc(NS(=O)(=O)N3CCc4cc(C#N)ccc43)c2F)c(-c2ccnc(NC3CC4(C3)CS(=O)(=O)C4)n2)s1 [Example 195, N-(3-(2-(tert-butyl)-5-(2-((2,2-dioxido-2-thiaspiro[3.3]heptan-6-yl)amino)-pyrimidin-4-yl)thiazol-4-yl)-2-fluoro-phenyl)-5-cyanoindoline-1-sulfonamide]",320
3,"CN(C)Cc1cccc2c1CN(S(=O)(=O)Nc1cccc(-c3nc(C(C)(C)C)sc3-c3ccnc(NC4CC5(C4)CS(=O)(=O)C5)n3)c1F)C2 [Example 197, N-(3-(2-(tert-butyl)-5-(2-((2,2-dioxido-2-thiaspiro[3.3]heptan-6-yl)amino)-pyrimidin-4-yl)thiazol-4-yl)-2-fluoro-phenyl)-4-((dimethylamino)methyl)-isoindoline-2-sulfonamide]",1080
4,"CN(C)C(=O)c1ccc2c(c1)N(S(=O)(=O)Nc1cccc(-c3nc(C(C)(C)C)sc3-c3ccnc(NC4CC5(C4)CS(=O)(=O)C5)n3)c1F)CC2 [Example 198, 1-(N-(3-(2-(tert-butyl)-5-(2-((2,2-dioxido-2-thiaspiro[3.3]heptan-6-yl)amino)pyrimidin-4-yl)thiazol-4-yl)-2-fluorophenyl)sulfamoyl)-N,N-dimethylindoline-6-carboxamide]",667
5,"CC(C)(C)c1nc(-c2cccc(NS(=O)(=O)N3CCC4(CC4)C3)c2F)c(-c2ccnc(NC3CC4(C3)CN(S(C)(=O)=O)C4)n2)s1 [Example 199, N-(3-(2-(tert-butyl)-5-(2-((2-(methylsulfonyl)-2-azaspiro [3.3]heptan-6-yl)amino)pyrimidin-4-yl)thiazol-4-yl)-2-fluorophenyl)-5-azaspiro [2.4]heptane-5-sulfonamide]",> 3840
6,"CC(C)(C)c1nc(-c2cccc(NS(=O)(=O)N3CCc4ccc(C#N)cc43)c2F)c(-c2ccnc(NC3CC4(C3)CN(S(C)(=O)=O)C4)n2)s1 [Example 200, N-(3-(2-(tert-butyl)-5-(2-((2-(methylsulfonyl)-2-azaspiro [3.3]heptan-6-yl)amino)pyrimidin-4-yl)thiazol-4-yl)-2-fluorophenyl)-6-cyanoindoline-1-sulfonamide]",247
7,"CC(C)(C)c1nc(-c2cccc(NS(=O)(=O)N3Cc4cccc(C(F)(F)F)c4C3)c2F)c(-c2ccnc(NC3CC4(C3)CS(=O)(=O)C4)n2)s1 [Example 201, N-(3-(2-(tert-butyl)-5-(2-((2,2-dioxido-2-thiaspiro[3.3]heptan-6-yl)amino)-pyrimidin-4-yl)thiazol-4-yl)-2-fluorophenyl)-4-(trifluoromethyl)-isoindoline-2-sulfonamide]",76.3
8,"COc1cccc2c1CN(S(=O)(=O)Nc1cccc(-c3nc(C(C)(C)C)sc3-c3ccnc(NC4CC5(C4)CS(=O)(=O)C5)n3)c1F)C2 [Example 202, N-(3-(2-(tert-butyl)-S-(2-((2,2-dioxido-2-thiaspiro[3.3]heptan-6-yl)amino)-pyrimidin-4-yl)thiazol-4-yl)-2-fluoro-phenyl)-4-methoxyisoindoline-2-sulfonamide]",86.2
9,"CNC(=O)c1ccc2c(c1)N(S(=O)(=O)Nc1cccc(-c3nc(C(C)(C)C)sc3-c3ccnc(NC4CC5(C4)CS(=O)(=O)C5)n3)c1F)CC2 [Example 203, 1-(N-(3-(2-(tert-butyl)-5-(2-((2,2-dioxido-2-thiaspiro[3.3]heptan-6-yl)amino)pyrimidin-4-yl)thiazol-4-yl)-2-fluorophenyl)sulfamoyl)-N-methyl-indoline-6-carboxamide]",931
